21 molecules from patent US10798941B2, “Microbiocidal oxadiazole derivatives” (SYNGENTA PARTICIPATIONS AG, priority 2016, dated 2020) can be followed below.

Where only a bound is given, the exact number is not on record here.

In data set [1] the test system is Puccinia recondita f. Sp. Tritici. As to the kind of experiment: Puccinia recondita f. sp. tritici / wheat / leaf disc preventative (brown rust). It is filed as in vivo. The following applies: foliar, 168 h, 200 ppm in the applied formulation, wheat leaf segments cv. Kanzler, preventative, inoculated 1 day after application, assessed 7 to 9 days after application, vs untreated, read-out: disease control. The essentials: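 Preventative leaf-segment test: spray application of diluted formulated compound on wheat cv. Kanzler, spore inoculation after 1 day. Percent control relative to untreated segments rated 7 to 9 days post-application, with incubation at 19° C, 75% relative humidity, 12 h photoperiod.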

Data set [2] has as its system Glomerella Lagenarium (Colletotrichum Lagenarium). Put plainly: Glomerella lagenarium (Colletotrichum lagenarium) liquid culture / cucumber / preventative (anthracnose). It is filed as cell-based. As to conditions: Colletotrichum orbiculare; 20 ppm in the applied formulation; liquid culture in PDB, 24° C., inhibition of growth measured photometrically 3 to 4 days after application, vs untreated; read-out: disease control. In short, it runs like this: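 Conidia from cryogenic storage were mixed into potato dextrose broth. This was added to compound diluted from DMSO into 0.025% Tween20, tested at 20 ppm. Plates were incubated in the dark at 24 °C and 96% relative humidity, and growth was read photometrically after 2–7 days as % activity versus untreated check.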

Data set [3] has as its system Puccinia recondita f. Sp. Tritici. As to the kind of experiment: Puccinia recondita f. sp. tritici / wheat / leaf disc curative (brown rust). The following applies: foliar, 144 h, 200 ppm in the applied formulation, wheat leaf segments cv. Kanzler, applied 1 day after inoculation, assessed 6 to 8 days after application, vs untreated, read-out: disease control. It is filed as in vivo. In short, it runs like this: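 Segments of wheat (cultivar Kanzler) sit on agar and are spore-inoculated first; after one day in darkness at 19° C and 75% RH the diluted formulated compound is sprayed on. A 12 h photoperiod follows at the same temperature and humidity before disease is scored against untreated controls.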

One may read the melting point as the temperature of the solid-liquid transition. Molecule `COC(=O)c1ncn(Cc2ccc(-c3noc(C(F)(F)F)n3)cc2)n1` [Compound 1.37, methyl 1-[[4-[5-(trifluoromethyl)-1,2,4-oxadiazol-3-yl]phenyl]methyl]-1,2,4-triazole-3-carboxylate] had a melting point of 174 to 177.2 °C. For the same molecule, the pest or weed control at 200 ppm in data set [1] was at least 80%. Besides, the inhibition of growth at 20 ppm in data set [2] was at least 80%.
In the case of `COc1cc(-c2noc(C(F)(F)F)n2)ccc1Cn1cncn1` [Compound 1.97, 3-[3-methoxy-4-(1,2,4-triazol-1-ylmethyl)phenyl]-5-(trifluoromethyl)-1,2,4-oxadiazole], the melting point lay within 102 to 106 °C. Moreover, the pest or weed control at 200 ppm in data set [3] is at least 80%. Further, in data set [2], the inhibition of growth at 20 ppm was at least 80%.
In turn, `COCCNC(=O)c1cnn(Cc2ccc(-c3noc(C(F)(F)F)n3)cc2)c1` [Compound 1.250, N-(2-methoxyethyl)-1-[[4-[5-(trifluoromethyl)-1,2,4-oxadiazol-3-yl]phenyl]methyl]pyrazole-4-carboxamide] gave a melting point of 132 to 142 °C. The pest or weed control at 200 ppm in data set [1] is at least 80%. The inhibition of growth at 20 ppm in data set [2] was at least 80%.
`N#Cc1ncn(Cc2ccc(-c3noc(C(F)(F)F)n3)c(F)c2)n1` [Compound 1.255, 1-[[3-fluoro-4-[5-(trifluoromethyl)-1,2,4-oxadiazol-3-yl]phenyl]methyl]-1,2,4-triazole-3-carbonitrile] came in with a melting point of 120 to 123 °C. Also, the pest or weed control at 200 ppm in data set [1] is at least 80%. Moreover, in data set [3], the pest or weed control at 200 ppm was at least 80%. Moreover, in data set [2], the inhibition of growth at 20 ppm was at least 80%.
In the case of `N#Cc1ncn(Cc2ccc(-c3noc(C(F)(F)F)n3)nc2)n1` [Compound 1.257, 1-[[6-[5-(trifluoromethyl)-1,2,4-oxadiazol-3-yl]-3-pyridyl]methyl]-1,2,4-triazole-3-carbonitrile], the melting point was in the range of 105 to 108 °C. The inhibition of growth at 20 ppm in data set [2] is at least 80%.
With `CC(C)(C)OC(=O)c1cnn(Cc2ccc(-c3noc(C(F)(F)F)n3)cc2)c1` [Compound 1.262, ~{tert}-butyl 1-[[4-[5-(trifluoromethyl)-1,2,4-oxadiazol-3-yl]phenyl]methyl]pyrazole-4-carboxylate], the melting point fell in the range of 81 to 91 °C. Moreover, the pest or weed control at 200 ppm in data set [1] is at least 80%. Also, the inhibition of growth at 20 ppm in data set [2] is at least 80%.
Take `CCOC(=O)c1cnn(Cc2ccc(-c3noc(C(F)(F)F)n3)nc2)c1` [Compound 1.269, ethyl 1-[[6-[5-(trifluoromethyl)-1,2,4-oxadiazol-3-yl]-3-pyridyl]methyl]pyrazole-4-carboxylate]: the melting point lay within 88 to 90 °C. Besides, the pest or weed control at 200 ppm in data set [1] is at least 80%. The pest or weed control at 200 ppm in data set [3] is at least 80%. Also, in data set [2], the inhibition of growth at 20 ppm is at least 80%.
For the molecule `O=C(O)c1cn(Cc2ccc(-c3noc(C(F)(F)F)n3)cc2)nn1` [Compound 1.271, 1-[[4-[5-(trifluoromethyl)-1,2,4-oxadiazol-3-yl]phenyl]methyl]triazole-4-carboxylic acid], the melting point is 208 to 210 °C. Besides, in data set [1], the pest or weed control at 200 ppm was at least 80%. Further, the pest or weed control at 200 ppm in data set [3] was at least 80%.
For `COc1ccc(NC(=O)c2cn(Cc3ccc(-c4noc(C(F)(F)F)n4)cc3)nn2)cc1` [Compound 1.281, N-(4-methoxyphenyl)-1-[[4-[5-(trifluoromethyl)-1,2,4-oxadiazol-3-yl]phenyl]methyl]triazole-4-carboxamide], the melting point is 205 to 207 °C. In data set [1], the pest or weed control at 200 ppm was at least 80%. Besides, the pest or weed control at 200 ppm in data set [3] was at least 80%. In addition, in data set [2], the inhibition of growth at 20 ppm is at least 80%.
In turn, `O=C(Nc1ccc(Cl)cc1)c1cn(Cc2ccc(-c3noc(C(F)(F)F)n3)cc2)nn1` [Compound 1.282, N-(4-chlorophenyl)-1-[[4-[5-(trifluoromethyl)-1,2,4-oxadiazol-3-yl]phenyl]methyl]triazole-4-carboxamide] registered a melting point of 233 to 235 °C. Also, the pest or weed control at 200 ppm in data set [1] was at least 80%.
Regarding `CCCON=Cc1cnn(Cc2ccc(-c3noc(C(F)(F)F)n3)cc2)c1` [Compound 1.287, N-propoxy-1-[1-[[4-[5-(trifluoromethyl)-1,2,4-oxadiazol-3-yl]phenyl]methyl]pyrazol-4-yl]methanimine], the melting point is 60 to 95 °C. Moreover, the pest or weed control at 200 ppm in data set [1] is at least 80%. Besides, in data set [3], the pest or weed control at 200 ppm was at least 80%. Further, the inhibition of growth at 20 ppm in data set [2] was at least 80%.
In turn, `FC(F)(F)c1nc(-c2ccc(Cn3cc(C=NOCc4ccccc4)cn3)cc2)no1` [Compound 1.289, N-benzyloxy-1-[1-[[4-[5-(trifluoromethyl)-1,2,4-oxadiazol-3-yl]phenyl]methyl]pyrazol-4-yl]methanimine] registered a melting point of 75 to 85 °C. Further, the pest or weed control at 200 ppm in data set [1] was at least 80%. Moreover, the inhibition of growth at 20 ppm in data set [2] is at least 80%.
On to `CNC(=O)c1cnnn1Cc1ccc(-c2noc(C(F)(F)F)n2)cc1` [Compound 1.291, N-methyl-3-[[4-[5-(trifluoromethyl)-1,2,4-oxadiazol-3-yl]phenyl]methyl]triazole-4-carboxamide], for which the melting point lay in the range of 222 to 224 °C. The pest or weed control at 200 ppm in data set [3] is at least 80%.
Molecule `CS(=O)(=O)c1ncnn1Cc1ccc(-c2noc(C(F)(F)F)n2)cc1` [Compound 1.294, 3-[4-[(5-methylsulfonyl-1,2,4-triazol-1-yl)methyl]phenyl]-5-(trifluoromethyl)-1,2,4-oxadiazole] yielded a melting point of 119.2 to 119.8 °C. In data set [1], the pest or weed control at 200 ppm was at least 80%. The pest or weed control at 200 ppm in data set [3] was at least 80%. Further, the inhibition of growth at 20 ppm in data set [2] is at least 80%.
Regarding `C[S+]([O-])c1ncnn1Cc1ccc(-c2noc(C(F)(F)F)n2)cc1` (stereo not drawn) [Compound 1.295, 3-[4-[(5-methylsulfinyl-1,2,4-triazol-1-yl)methyl]phenyl]-5-(trifluoromethyl)-1,2,4-oxadiazole], the melting point was 71.2 to 73.7 °C. Also, in data set [1], the pest or weed control at 200 ppm was at least 80%. Also, in data set [3], the pest or weed control at 200 ppm was at least 80%. In addition, the inhibition of growth at 20 ppm in data set [2] is at least 80%.
In turn, `CS(=O)(=O)c1ncn(Cc2ccc(-c3noc(C(F)(F)F)n3)cc2)n1` [Compound 1.296, 3-[4-[(3-methylsulfonyl-1,2,4-triazol-1-yl)methyl]phenyl]-5-(trifluoromethyl)-1,2,4-oxadiazole] came in with a melting point of 145.4 to 146.4 °C. The pest or weed control at 200 ppm in data set [1] is at least 80%. Also, the pest or weed control at 200 ppm in data set [3] is at least 80%. In addition, the inhibition of growth at 20 ppm in data set [2] is at least 80%.
The molecule `C[S+]([O-])c1ncn(Cc2ccc(-c3noc(C(F)(F)F)n3)cc2)n1` (stereo not drawn) [Compound 1.297, 3-[4-[(3-methylsulfinyl-1,2,4-triazol-1-yl)methyl]phenyl]-5-(trifluoromethyl)-1,2,4-oxadiazole] yielded a melting point of 114.4 to 115.2 °C. In addition, the pest or weed control at 200 ppm in data set [1] is at least 80%. The pest or weed control at 200 ppm in data set [3] is at least 80%. Besides, in data set [2], the inhibition of growth at 20 ppm is at least 80%.
Regarding `CSc1ncnn1Cc1ccc(-c2noc(C(F)(F)F)n2)cc1` [Compound 1.298, 3-[4-[(5-methylsulfanyl-1,2,4-triazol-1-yl)methyl]phenyl]-5-(trifluoromethyl)-1,2,4-oxadiazole], the melting point was 72 to 73.2 °C. Moreover, the pest or weed control at 200 ppm in data set [1] was at least 80%. The pest or weed control at 200 ppm in data set [3] is at least 80%. The inhibition of growth at 20 ppm in data set [2] was at least 80%.
For `CSc1ncn(Cc2ccc(-c3noc(C(F)(F)F)n3)cc2)n1` [Compound 1.299, 3-[4-[(3-methylsulfanyl-1,2,4-triazol-1-yl)methyl]phenyl]-5-(trifluoromethyl)-1,2,4-oxadiazole], the melting point lay within 88 to 90.4 °C. Besides, the pest or weed control at 200 ppm in data set [1] was at least 80%. In data set [3], the pest or weed control at 200 ppm was at least 80%. The inhibition of growth at 20 ppm in data set [2] was at least 80%.
Take `FC(F)(F)c1nc(-c2ccc(CN3CCSCC3)cc2)no1` [Compound 1.302, 3-[4-(thiomorpholino-methyl)phenyl]-5-(trifluoromethyl)-1,2,4-oxadiazole]: the melting point lay within 54.5 to 56.6 °C. The pest or weed control at 200 ppm in data set [1] is at least 80%. Moreover, the pest or weed control at 200 ppm in data set [3] was at least 80%. For the same molecule, the inhibition of growth at 20 ppm in data set [2] is at least 80%.
In the case of `CCOC(=O)c1cnn(CC(F)c2ccc(-c3noc(C(F)(F)F)n3)cc2)c1` (stereo not drawn) [Compound 1.311, ethyl 1-[2-fluoro-2-[4-[5-(trifluoromethyl)-1,2,4-oxadiazol-3-yl]phenyl]ethyl]pyrazole-4-carboxylate], the melting point fell in the range of 145 to 147 °C.
